Measured values from publication PMC12530846, “Development of Novel Anticancer Pyrazolopyrimidinones Targeting Glioblastoma” (Chemmedchem, 2025).
Read-outs that look alike come from different tables or passages of the source.

Key:
[1] = tested on: U‐251 MG cells; test: MTT cell viability assay, U‐251 MG glioblastoma cells, 5 days treatment; format: cell-based, human; settings: 5 days treatment, 100–0 µM
Description: (§1) Dose–response curves for each of the pyrazolo[1,5‐α]pyrimidinones were performed to determine the cytotoxic effect of the compounds on a cancerous, U‐251 MG cell line and a noncancerous, HEK293 cell line. The synthesized pyrazolopyrimidinones were dissolved in DMSO (Merck) to obtain a stock solution which was stored at −20 °C. […] U‐251 MG and HEK293 cells were seeded at a density of 2 x 10^3 cells per well (100 μL) in a 96‐well plate (Sarstedt) and incubated for 24 h prior to each treatment to allow for cell adhesion. The stock solution was diluted in media to working concentrations of 100, 75, 50, 25, 10, 5, and 0.1 μM. Media on the seeded cells was then replaced with the working concentrations of the compound or the controls in a 96‐well plate (100 μL). The treated plate was incubated at 37 °C in the humidified incubator for 5 days. Cell viability was assessed after 5 days using the MTT assay. Dose–response curves were then plotted relative to the positive control whereby cells were treated 20% DMSO and a negative control whereby cells were maintained in fresh DMEM.
(§2) To determine the extent of the cytotoxic effect of the pyrazolopyrimidinone on each cell line, the cell viability at each working concentration was determined via the MTT assay (Merck). The working solution of MTT used was 5 mg MTT per 1 ml of PBS diluted in 9 ml of media. After 5 days of incubation, the treatment was removed from each of the wells and replaced with 100 μL of fresh MTT solution. The plate was then incubated for 3 h at 37 °C in a humidified incubator to allow the reduction of the yellow tetrazolium salt to purple formazan crystals. After the incubation, the MTT solution was removed from the wells and replaced with 100 μL of DMSO for 15 min to dissolve the formazan crystals. The absorbance was read at 570 nm using a spectrophotometric microplate reader (Thermo Fisher Scientific).
(§3) Each of the experiments was performed at least three independent times, with a minimum of six technical replicates per experiment. Statistical analysis was carried out using GraphPad Prism version 8.0.0 (GraphPad Softwares, Inc.). Curve fitting and the IC50 values were obtained through the dose–response curves using nonlinear regression. To determine if the dose–response curves were statistically distinct and not overlapping, extra sum‐of‐squares F‐test was used, and a p‐value was obtained. The effect of compound treatment on both cell lines was statistically compared via two‐way ANOVA with Tukey's post‐test. The CytExpert (Beckman Coulter) software was used for flow cytometry analysis. Graphs represent the % dead cells whereby the total number of dead cells was divided by the total cell population. The statistical significance of the flow cytometry results was determined via one‐way analysis of variance (ANOVA) with Dunnett's T3 multiple comparison post‐test. Data is presented as the mean ± standard error of mean (SEM). Summary of results from statistical analysis reports p‐values as follows: ≥0.05 (ns), 0.01–0.05 (*), 0.001–0.01 (**), […], and <0.0001(****).

[2] = tested on: HEK293 cells; test: MTT cell viability assay, noncancerous HEK293 cells, 5 days treatment; format: cell-based, human; settings: for IC50: 5 days treatment, 100–0 µM
Description: as §1, §2, §3

[3] = tested on: U‐251 MG cells; test: Propidium iodide (PI) flow cytometry, cell membrane permeabilization; format: cell-based, human; settings: 5 days; for PI: significance of cell death, Neg Ctrl v HNT: highest non-toxic concentration; for PI: significance of cell death, Neg Ctrl v 50 µM: highest toxic concentration 50 µM
Description: Propidium iodide (PI) is a DNA staining, cell membrane impermeable dye which was used to assess cell death via loss of membrane integrity and is used to indicate necrotic or late apoptotic cells. Stock solutions of PI dye (Merck, Ireland) were prepared at 10 μg/mL in PBS and stored at −20 °C. U‐251 MG cells were seeded in 96‐well plates at a seeding density of 2 x 10^3 cells per well (100 μL), as previously stated. […] Subsequently, the compound was collected in 15 ml falcon tubes. Cells were washed with PBS (100 μL), and the PBS was collected in corresponding tubes to ensure all cells are collected. The cells were collected using 0.25% trypsin‐EDTA (50 μL) with a 6‐min incubation and media neutralization (100 μL). Each tube was centrifuged at 1200rpm for 5 min to obtain a pellet. The supernatant was removed, and the pellet was resuspended in PBS and transferred to an Eppendorf tube. Ten microliters of PI stain (2.5 μg/ml) was added to the Eppendorf tubes, and the tubes were incubated for a period of 15 min. Cells were also treated using controls whereby the positive control used was DMEM and 20% DMSO and the negative control used was fresh media. The cells were then analyzed using flow cytometry (Beckmann Coulter, CytExpert version 2.4.0.28). Fluorescence was measured using the FL2 channel. PI was detected in the red channel which is R‐phycoerythrin (PE‐Cy5). PE was used in combination with fluorescein isothiocyanate (FITC) and is excited at a wavelength of 488 nm.
as §3

[4] = tested on: U‐251 MG cells; test: JC‐1 flow cytometry, mitochondrial membrane depolarization / apoptosis; format: cell-based, human; settings: U‐251 MG, 5 days; for JC-1: significance of cell death, Neg Ctrl v HNT: highest non-toxic concentration; for JC-1: significance of cell death, Neg Ctrl v 50 µM: highest toxic concentration 50 µM
Description: JC‐1 dye forms aggregates in healthy mitochondria which changes the fluorescent property of the dye. […] Stock solutions of JC‐1 dye (Merck) were prepared at 1 mg/mL in DMSO and stored at −20 °C. U‐251 MG cells were seeded in 6‐well plates (Sarstedt) at a seeding density of 2 x 10^4 cells per well (1000μL) after which cells were treated with drug concentrations (highest toxic, IC50, nontoxic). After 5 days incubation, the compound and wash step with PBS was collected in falcon tubes. The cells were then harvested by trypsinization (500 μL), incubated for a period of 6 min, neutralized with media (1000 μL), and pelleted at 1200rpm for 5 min. A JC‐1 working solution of 2 μg/mL was made up in DMEM and was light protected. The cell pellet was resuspended and stained with 2 μg/mL JC‐1 dye and incubated and protected from the light for a period of 10 min. Cells were then centrifuged at 1200rpm for 5 min. The supernatant was removed, and cells were washed with 1 mL of sterile PBS. This was repeated twice. […] Cells were also treated using controls whereby the positive control used was DMEM and 20% DMSO and the negative control used was fresh media. The cells were then analyzed using flow cytometry (Beckmann Coulter, CytExpert version 2.4.0.28). Fluorescence was measured using FL1 (FITC) (530 nm) and FL2 (PE) (595 nm) channels with emission.
as §3

[5] = tested on: U‐251 MG and HEK293 cells; test: Statistical comparison of dose–response in U‐251 MG versus HEK293 (selectivity, HIT criteria); format: cell-based, human; settings: for Selectivity for cancer cells with IC50 < 50 [µM]‐Yes/No: HEK293 IC50 higher than U‐251 MG IC50, U‐251 MG IC50 below 50 µM; for All criteria met -Yes/No: HIT criteria and statistical testing, Table S1
[6] = tested on: U‐251 MG cells; set-up: method as in He and colleagues (2021); settings: after 2 days of treatment; ref He and colleagues (2021); read-out: cytotoxicity against U‐251 MG cells (IC50); cited from earlier work

SMILES | IC50 [1] | IC50 ([1]; Homo sapiens, U-251, 120 h) | IC50 [2] | cytotoxicity / biological response in HEK293, in words ([2]; 5 days, up to 100 µM, threshold 50 µM) | IC50 ([2]; Homo sapiens, HEK293, 120 h) | cell membrane permeabilization‐dependent cell death (PI), in words [3] | PI: significance of cell death, Neg Ctrl v HNT [3] | PI: significance of cell death, Neg Ctrl v 50 µM [3] | JC-1: significance of cell death, Neg Ctrl v HNT [4] | JC-1: significance of cell death, Neg Ctrl v 50 µM [4] | Selectivity for cancer cells with IC50 < 50 [µM]‐Yes/No [5] | All criteria met -Yes/No [5] | IC50 [6]
O=c1cc(-c2cc(C(F)(F)F)cc(C(F)(F)F)c2)[nH]c2cc(-c3ccc(C(F)(F)F)cc3)nn12 [Compound 9] | 27.5 µM | 26.8 µM | 54.4 µM | did not elicit any biological response | > 50 µM | significant cell membrane permeabilization‐dependent cell death | ns (≥0.05 (ns)) | **** (<0.0001(****)) | ns (≥0.05 (ns)) | ** (0.001 to 0.01 (**)) | Yes | Yes | –
O=c1cc(-c2ccccc2)[nH]c2cc(-c3ccccc3)nn12 [Compound 15] | – | 19.9 µM | – | – | 15.9 µM | – | – | – | – | – | No | No | 77.7 µM
O=c1cc(-c2cc(C(F)(F)F)cc(C(F)(F)F)c2)[nH]c2cc(-c3cccc(Br)c3)nn12 [Compound 21, 5‐(3,5‐Bis(trifluoromethyl)phenyl)‐2‐(3‐bromophenyl)pyrazolo[1,5‐α]pyrimidin‐7(4¬H)‐one] | 0.71 µM | 0.714 µM | – | – | 19 µM | significant cell membrane permeabilization‐dependent cell death | ns (≥0.05 (ns)) | **** (<0.0001(****)) | *** (0.001 to 0.01(***)) | *** (0.001 to 0.01(***)) | Yes | Yes | –
O=c1cc(-c2cc(C(F)(F)F)cc(C(F)(F)F)c2)[nH]c2cc(-c3ccccc3Br)nn12 [Compound 22] | 2.79 µM | 2.79 µM | – | – | 66.9 µM | significant cell membrane permeabilization‐dependent cell death | – | **** (<0.0001(****)) | ns (≥0.05 (ns)) | * (0.01 to 0.05 (*)) | Yes | Yes | –
